US10975037B2 (priority 2018, dated 2021)
Structures can show the parent of a compound that is named as a salt. Where two headings read alike, the source gives them in different places.

What was measured:
[1] = biological target: human RORγt ligand binding domain (RORγt LBD) (Homo sapiens (Human), UniProt P51449); assay: RORγt ThermoFluor® assay (thermal shift binding)
Outline: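 Thermal shift with 0.065 mg/mL RORγt LBD and 60 μM 1,8-ANS in 100 mM Hepes pH 7.0, 10 mM NaCl, 2.5 mM GSH, 0.002% Tween-20.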

full-length human RORγt = full-length human RORγt (Homo sapiens (Human), UniProt P51449); assay: RORγt (full-length human) reporter assay, conditions A or B, HEK293T cells; type: cell-based; details: for inhibition at 3 µM: 3 μM compound concentration (footnote *); for IC50: RORγt (FL) Reporter Assay A or B, IC50, HEK293T cells; for inhibition at 1 µM: 1 μM compound concentration (footnote ***)
Sequence of full-length human RORγt (P51449 other isoform, or with tags, fused parts or gaps): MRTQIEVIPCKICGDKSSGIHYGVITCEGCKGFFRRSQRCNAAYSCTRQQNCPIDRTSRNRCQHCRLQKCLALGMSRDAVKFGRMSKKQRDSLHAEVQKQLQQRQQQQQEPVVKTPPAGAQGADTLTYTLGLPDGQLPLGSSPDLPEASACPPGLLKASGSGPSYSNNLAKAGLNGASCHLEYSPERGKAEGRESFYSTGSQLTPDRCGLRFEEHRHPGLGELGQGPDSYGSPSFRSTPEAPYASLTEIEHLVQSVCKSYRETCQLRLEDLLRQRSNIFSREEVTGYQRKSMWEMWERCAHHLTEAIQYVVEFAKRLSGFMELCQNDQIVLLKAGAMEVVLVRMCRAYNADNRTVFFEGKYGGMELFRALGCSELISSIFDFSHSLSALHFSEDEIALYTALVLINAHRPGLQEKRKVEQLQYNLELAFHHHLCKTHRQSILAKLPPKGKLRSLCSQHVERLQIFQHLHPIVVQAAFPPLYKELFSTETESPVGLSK
Outline: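 After 16–20 h, dual firefly/Renilla luciferase luminescence was read. Firefly signal was normalized to DMSO and saturating reference compound, then to Renilla, and fitted for IC50; % inhibition is versus DMSO.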

[2] = HEK-293T, read-out: RORγt (FL) Reporter Assay A or B, % inhibition

Sequence of human RORγt ligand binding domain (RORγt LBD) (P51449 other isoform, or with tags, fused parts or gaps): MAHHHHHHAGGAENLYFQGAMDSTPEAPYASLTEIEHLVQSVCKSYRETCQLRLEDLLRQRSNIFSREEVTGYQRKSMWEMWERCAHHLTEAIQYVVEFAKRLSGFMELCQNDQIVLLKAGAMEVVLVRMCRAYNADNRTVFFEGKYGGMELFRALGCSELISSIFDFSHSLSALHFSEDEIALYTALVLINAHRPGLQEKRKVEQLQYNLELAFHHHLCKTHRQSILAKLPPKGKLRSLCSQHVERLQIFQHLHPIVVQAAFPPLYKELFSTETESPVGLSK

Row | Compound | Kd ([1]; ThermoFluor® Assay, Kd) | inhibition at 3 µM (full-length human RORγt; [2]) | IC50 (full-length human RORγt) | inhibition at 1 µM (full-length human RORγt; [2]) | Kd ([1]; read-out: ThermoFluor® Assay, Kd) | inhibition at […] (full-length human RORγt; HEK-293T, 0.22 μM compound concentration (footnote *******), read-out: RORγt (FL) Reporter Assay A or B, % inhibition)
1 | CCn1nc(C(=O)NC[C@H]2CC[C@H](S(C)(=O)=O)CN2)c(Cl)c1-c1ccc(CC(C)(C)C(F)(F)F)cc1OC(F)F (stereo in doubt) [Example 8, 4-Chloro-5-(2-(difluoromethoxy)-4-(3,3,3-trifluoro-2,2-dimethylpropyl)phenyl)-1-ethyl-N-(((2RS,5SR)-5-(methylsulfonyl)piperidin-2-yl)methyl)-1H-pyrazole-3-carboxamide Hydrobromide] | 0.73 nM | 92% | 13 nM |  |  | 
2 | CCn1nc(C(=O)NC[C@H]2CC[C@H](S(C)(=O)=O)CN2)c(Cl)c1-c1ccc(CC(C)(C)C(F)(F)F)cc1OC(F)F (stereo in doubt) [Example 9, 4-Chloro-5-(2-(difluoromethoxy)-4-(3,3,3-trifluoro-2,2-dimethylpropyl)phenyl)-1-ethyl-N-(((2R*,5S*)-5-(methylsulfonyl)piperidin-2-yl)methyl)-1H-pyrazole-3-carboxamide hydrobromide] | 1.6 nM |  | 9.1 nM | 104% |  | 
3 | CCn1nc(C(=O)NC[C@@H]2CC[C@@H](S(C)(=O)=O)CN2)c(Cl)c1-c1ccc(CC(C)(C)C(F)(F)F)cc1OC(F)F (stereo in doubt) [Example 10, 4-Chloro-5-(2-(difluoromethoxy)-4-(3,3,3-trifluoro-2,2-dimethylpropyl)phenyl)-1-ethyl-N-(((2S*,5R*)-5-(methylsulfonyl)piperidin-2-yl)methyl)-1H-pyrazole-3-carboxamide hydrobromide] | 2.6 nM | 103% | 25 nM |  |  | 
4 | CCn1nc(C(=O)NC[C@H]2CC[C@@H](S(C)(=O)=O)CN2)c(Cl)c1-c1ccc(CC(C)(C)C(F)(F)F)cc1OC(F)F (stereo in doubt) [Example 13, 4-Chloro-5-(2-(difluoromethoxy)-4-(3,3,3-trifluoro-2,2-dimethylpropyl)phenyl)-1-ethyl-N-(((2R*,5R*)-5-(methylsulfonyl)piperidin-2-yl)methyl)-1H-pyrazole-3-carboxamide] | 110 nM | 90% | 190 nM |  |  | 
5 | CCn1nc(C(=O)NC[C@@]2(O)CC[C@H](S(C)(=O)=O)C[C@@H]2O)c(C)c1-c1ccc(C[C@H](C)C(F)(F)F)cc1OC(F)F (stereo in doubt) [Example 57, 5-(2-(Difluoromethoxy)-4-((S*)-3,3,3-trifluoro-2-methylpropyl)phenyl)-N-(((1S*,2S*,4S*)-1,2-dihydroxy-4-(methylsulfonyl)cyclohexyl)methyl)-1-ethyl-4-methyl-1H-pyrazole-3-carboxamide] | 5.7 nM | 95% | 35 nM |  |  | 
6 | CCn1nc(C(=O)NC[C@H]2CC[C@H](S(C)(=O)=O)C[NH+]2CC(=O)ON)c(Cl)c1-c1ccc(CC(C)(C)C(F)(F)F)cc1OC(F)F (stereo in doubt) [Example 64, N-(((2R*,5S*)-1-(2-(Aminooxy)-2-oxoethyl)-5-(methylsulfonyl)piperidin-2-yl)methyl)-4-chloro-5-(2-(difluoromethoxy)-4-(3,3,3-trifluoro-2,2-dimethylpropyl)phenyl)-1-ethyl-1H-pyrazole-3-carboxamide Trifluoroacetic Acid Salt] | 3.2 nM | 119% | 51 nM |  |  | 
7 | CCn1nc(C(=O)NC[C@]2(O)CC[C@@H](S(C)(=O)=O)C[C@H]2O)c(Cl)c1-c1ccc(C[C@@H](C)C(F)(F)F)cc1OC(F)F (stereo in doubt) [Example 137, 4-Chloro-5-(2-(difluoromethoxy)-4-((R*)-3,3,3-trifluoro-2-methylpropyl)phenyl)-N-(((1R*,2R*,4R*)-1,2-dihydroxy-4-(methylsulfonyl)cyclohexyl)methyl)-1-ethyl-1H-pyrazole-3-carboxamide] | 2 nM | 102% | 4.8 nM |  |  | 
8 | CCn1nc(C(=O)NC[C@]2(O)CC[C@@H](S(C)(=O)=O)C[C@H]2O)c(C)c1-c1ccc(C[C@@H](C)C(F)(F)F)cc1OC(F)F (stereo in doubt) [Example 140, 5-(2-(Difluoromethoxy)-4-((R*)-3,3,3-trifluoro-2-methylpropyl)phenyl)-N-(((1R*,2R*,4R*)-1,2-dihydroxy-4-(methylsulfonyl)cyclohexyl)methyl)-1-ethyl-4-methyl-1H-pyrazole-3-carboxamide] | 2.4 nM | 109% | 15 nM |  |  | 
9 | CCn1nc(C(=O)NC[C@@]2(O)CC[C@H](S(C)(=O)=O)C[C@@H]2O)c(C)c1-c1ccc(C[C@@H](C)C(F)(F)F)cc1OC(F)F (stereo in doubt) [Example 141, 5-(2-(Difluoromethoxy)-4-((R*)-3,3,3-trifluoro-2-methylpropyl)phenyl)-N-(((1S*,2S*,4S*)-1,2-dihydroxy-4-(methylsulfonyl)cyclohexyl)methyl)-1-ethyl-4-methyl-1H-pyrazole-3-carboxamide] | 5.8 nM | 84% | 85 nM |  |  | 
10 | Cn1nc(C(=O)NC[C@]2(O)CC[C@@H](S(C)(=O)=O)C[C@H]2O)c(Cl)c1-c1ccc(CCCC(F)(F)F)cc1OC(F)F (stereo in doubt) [Example 160, 4-Chloro-5-(2-(difluoromethoxy)-4-(4,4,4-trifluorobutyl)phenyl)-N-(((1R*,2R*,4R*)-1,2-dihydroxy-4-(methylsulfonyl)cyclohexyl)methyl)-1-methyl-1H-pyrazole-3-carboxamide] | 39 nM | 96% | 27 nM |  |  | 
11 | CCn1nc(C(=O)NC[C@H]2CC[C@H](S(C)(=O)=O)CC2)c(Cl)c1-c1ccc(CC(C)(C)C(F)(F)F)cc1OC(F)F [Example 2, 4-Chloro-5-(2-(difluoromethoxy)-4-(3,3,3-trifluoro-2,2-dimethylpropyl)phenyl)-1-ethyl-N-(((1r,4r)-4-(methylsulfonyl)cyclohexyl)methyl)-1H-pyrazole-3-carboxamide] |  |  | 4.4 nM |  | 0.16 nM | 94%

Further molecules by falling IC50 (full-length human RORγt), results first:

Row | Kd ([1]; ThermoFluor® Assay, Kd) | inhibition at 3 µM (full-length human RORγt; [2]) | IC50 (full-length human RORγt) | inhibition at 1 µM (full-length human RORγt; [2]) | Kd ([1]; read-out: ThermoFluor® Assay, Kd) | inhibition at […] (full-length human RORγt; HEK-293T, 0.22 μM compound concentration (footnote *******), read-out: RORγt (FL) Reporter Assay A or B, % inhibition) | Compound
12 | 35 nM | 100% | 190 nM |  |  |  | CCn1nc(C(=O)NC[C@H]2CC[C@@H](S(C)(=O)=O)CN2)c(Cl)c1-c1ccc(CC(C)(C)C(F)(F)F)cc1OC(F)F (stereo in doubt) [Example 11, 4-Chloro-5-(2-(difluoromethoxy)-4-(3,3,3-trifluoro-2,2-dimethylpropyl)phenyl)-1-ethyl-N-(((2RS,5RS)-5-(methylsulfonyl)piperidin-2-yl)methyl)-1H-pyrazole-3-carboxamide Hydrobromide]
13 | 74 nM | 92% | 91 nM |  |  |  | CCn1nc(C(=O)NC[C@@H]2CC[C@H](S(C)(=O)=O)CN2)c(Cl)c1-c1ccc(CC(C)(C)C(F)(F)F)cc1OC(F)F (stereo in doubt) [Example 12, 4-Chloro-5-(2-(difluoromethoxy)-4-(3,3,3-trifluoro-2,2-dimethylpropyl)phenyl)-1-ethyl-N-(((2S*,5S*)-5-(methylsulfonyl)piperidin-2-yl)methyl)-1H-pyrazole-3-carboxamide]
14 | 41 nM | 73% | 39 nM |  |  |  | Cn1nc(C(=O)NC[C@@]2(O)CC[C@H](S(C)(=O)=O)C[C@@H]2O)c(Cl)c1-c1ccc(CCCC(F)(F)F)cc1OC(F)F (stereo in doubt) [Example 159, 4-Chloro-5-(2-(difluoromethoxy)-4-(4,4,4-trifluorobutyl)phenyl)-N-(((1S*,2S*,4S*)-1,2-dihydroxy-4-(methylsulfonyl)cyclohexyl)methyl)-1-methyl-1H-pyrazole-3-carboxamide]
15 | 3.5 nM | 103% | 26 nM |  |  |  | CCn1nc(C(=O)NC[C@@]2(O)CC[C@H](S(C)(=O)=O)C[C@@H]2O)c(Cl)c1-c1ccc(C[C@H](C)C(F)(F)F)cc1OC(F)F (stereo in doubt) [Example 52, 4-Chloro-5-(2-(difluoromethoxy)-4-((S*)-3,3,3-trifluoro-2-methylpropyl)phenyl)-N-(((1S*,2S*,4S*)-1,2-dihydroxy-4-(methylsulfonyl)cyclohexyl)methyl)-1-ethyl-1H-pyrazole-3-carboxamide]
16 | 3.7 nM |  | 12 nM | 101% |  |  | CCn1nc(C(=O)NC[C@@]2(O)CC[C@H](S(C)(=O)=O)C[C@@H]2O)c(Cl)c1-c1ccc(C[C@@H](C)C(F)(F)F)cc1OC(F)F (stereo in doubt) [Example 138, 4-Chloro-5-(2-(difluoromethoxy)-4-((R*)-3,3,3-trifluoro-2-methylpropyl)phenyl)-N-(((1S*,2S*,4S*)-1,2-dihydroxy-4-(methylsulfonyl)cyclohexyl)methyl)-1-ethyl-1H-pyrazole-3-carboxamide]
17 | 1 nM | 109% | 8 nM |  |  |  | CCn1nc(C(=O)NC[C@@H]2CC[C@@H](S(C)(=O)=O)C[NH+]2CC(=O)ON)c(Cl)c1-c1ccc(CC(C)(C)C(F)(F)F)cc1OC(F)F (stereo in doubt) [Example 63, N-(((2S*,5R*)-1-(2-(Aminooxy)-2-oxoethyl)-5-(methylsulfonyl)piperidin-2-yl)methyl)-4-chloro-5-(2-(difluoromethoxy)-4-(3,3,3-trifluoro-2,2-dimethylpropyl)phenyl)-1-ethyl-1H-pyrazole-3-carboxamide Trifluoroacetic Acid Salt]
